Experiments:
[1] = Cell viability test by Cell Counting Kit-8 (CCK-8); settings: African green monkey
[2] = system: SARS-CoV-2; assay: SARS-CoV-2 infection of Vero E6 cells, quantified by N protein expression (IFA / PRNT); format: cell-based; settings: Severe acute respiratory syndrome coronavirus 2, Vero C1008, Vero E6 cells pretreated 20 hr, infected at MOI=0.01 for 2 days, read-out: IC50 (anti-SARS-CoV-2 activity)
[3] = system: SARS-CoV-2; assay: SARS-CoV-2 plaque reduction neutralization test, plaque formation; format: cell-based; settings: at 1.25 μM
[4] = in vitro; settings: African green monkey
[5] = system: SARS-CoV-2; assay: Mouse challenge with SARS-CoV-2, lung histopathology scoring; format: in vivo, AAV/hACE2 C57BL/6 mice; settings: 50 mg/kg I.P., AAV/hACE2 mice, day 5 post-SARS-CoV-2 infection; score scale 0-5; 2 out of 5

Compound | CC50 [1] [µM] | IC50 [2] [µM] | reduction of plaque formation [3] [%] | CC50 [4] [µM] | clinical score of lung histopathology [5]
CC(N)C(=O)OCN1C(=O)N/C(=C\c2cnn3c(NC4CC4)cc(Nc4cc(Cl)ccc4F)nc23)C1=O (stereo not drawn) [Compound C] | 4.21 | 0.097 | 75 | – | –
CCC(CC)COC(=O)[C@H](C)N[P@](=O)(OC[C@H]1O[C@@](C#N)(c2ccc3c(N)ncnn23)[C@H](O)[C@@H]1O)Oc1ccccc1 [Compound E, Remdesivir, reference compound] | – | 0.83 | – | > 5 | –
O=C(O)c1ccc2c(c1)nc(Nc1cccc(Cl)c1)c1ccncc12 [Compound A, Silmitasertib] | > 5 | 2.74 | 75 | – | less than 2
O=C1NC(=O)/C(=C/c2cnn3c(NC4CC4)cc(Nc4cc(Cl)ccc4F)nc23)N1 [Compound B] | 5.9 | 0.126 | 75 | – | –
